# Measurements: US11571421B2, “GABAA positive allosteric modulator compounds for treatment of itch and/or dermatitis” (NeuroCycle Therapeutics, Inc., priority 2018, dated 2023)
# “And” between values parts separate entries of the source, which are not always exact repeats. Equal entries are not always repeated.
# System: Chloroquine (CQ)-Induced Itch Model in Male C57BL/6 Mice
# Test: Chloroquine Induced Itch Model, AZD7325 (Example 2)
# Assay type: in vivo
# Experimental: Other GABAA positive allosteric modulators are predicted to have similar effects on pruritic conditions and dermatitis as PF-06372865. […] In this study, the efficacy of AZD7325 was evaluated in the Chloroquine Induced Itch Model in Male C57BL/6 Mice. […]
# AZD7325 was weighed into a clean glass container. A 5% 2-hydroxypropyl-β-cyclodextrin was added and the resulting mixture was mixed well using mild vortexing and sonicated for 15-20 minutes to provide a homogeneous suspension.
# 21 mg of chloroquine phosphate was weighed in a clean glass container. 5.2 mL PBS was added, and the resulting mixture was mixed well using mild vortexing to form the desired strength solution.
# The right-side cheek area of all the animals was shaved with animal clippers 1 day prior to the experiment. Animals were randomized into different treatment groups based on body weight to avoid variability in weights across groups one day prior to experiment. Reference formulations and chloroquine phosphate solution were prepared on the day of the experiment.
# Animals were dosed per oral with respective treatment group using a dose volume of 10 ml/kg. Times of dosing were recorded. Immediately after compound treatment, animals were kept in a empty transparent chamber (23 cm length×17 cm width) for acclimatization and observation.
# Ninety (90) minutes post compound dosing, 50-μl of chloroquine phosphate solution (a 200-μg dose) was injected intracutaneously into the animal's right cheek. Animals were returned to the same chamber for observation. Animals were observed by an observer blind to the treatment group for a period of 30 minutes post chloroquine injection. Total number of bouts of scratching directed at the ipsilateral cheek were recorded for 30 minutes.
# [1] = 0.3 mg/kg PO, individual animals
# [2] = 10 mg/kg PO, individual animals
# [3] = 30 mg/kg PO, individual animals
compound,measurement,setting,value
CCCNC(=O)c1nnc2c(-c3c(F)cccc3OC)cccc2c1N [AZD7325],"Scratching bouts (Nos.) In 30 min, 0-5 min","0.3 mg/kg PO, MEAN, N=6",1.17 Nos.
same,"Scratching bouts (Nos.) In 30 min, 5-10 min","0.3 mg/kg PO, MEAN, N=6",11.00 Nos.
same,"Scratching bouts (Nos.) In 30 min, 10-15 min","0.3 mg/kg PO, MEAN, N=6",17.17 Nos.
same,"Scratching bouts (Nos.) In 30 min, 15-20 min","0.3 mg/kg PO, MEAN, N=6",24.00 Nos.
same,"Scratching bouts (Nos.) In 30 min, 20-25min","0.3 mg/kg PO, MEAN, N=6",16.83 Nos.
same,"Scratching bouts (Nos.) In 30 min, 25-30 min","0.3 mg/kg PO, MEAN, N=6",24.00 Nos.
same,Total Scratching bouts,"0.3 mg/kg PO, MEAN, N=6",94.17 (Nos.)/30 min
same,"Scratching bouts (Nos.) In 30 min, 0-5 min",[1],0 Nos. (4×) and 5 Nos. and 2 Nos.
same,"Scratching bouts (Nos.) In 30 min, 5-10 min",[1],17 Nos. and 0 Nos. (2×) and 9 Nos. and 24 Nos. and 16 Nos.
same,"Scratching bouts (Nos.) In 30 min, 10-15 min",[1],22 Nos. and 25 Nos. and 10 Nos. and 15 Nos. and 1 Nos. and 30 Nos.
same,"Scratching bouts (Nos.) In 30 min, 15-20 min",[1],45 Nos. and 30 Nos. and 0 Nos. and 14 Nos. and 28 Nos. and 27 Nos.
same,"Scratching bouts (Nos.) In 30 min, 20-25min",[1],11 Nos. and 28 Nos. and 18 Nos. and 29 Nos. and 15 Nos. and 0 Nos.
same,"Scratching bouts (Nos.) In 30 min, 25-30 min",[1],21 Nos. and 15 Nos. (2×) and 31 Nos. and 23 Nos. and 39 Nos.
same,Total Scratching bouts,[1],116 (Nos.)/30 min and 98 (Nos.)/30 min and 73 (Nos.)/30 min and 105 (Nos.)/30 min and 61 (Nos.)/30 min and 112 (Nos.)/30 min
same,"Scratching bouts (Nos.) In 30 min, 0-5 min","1 mg/kg PO, MEAN, N=6",2.00 Nos.
same,"Scratching bouts (Nos.) In 30 min, 5-10 min","1 mg/kg PO, MEAN, N=6",10.33 Nos.
same,"Scratching bouts (Nos.) In 30 min, 10-15 min","1 mg/kg PO, MEAN, N=6",15.67 Nos.
same,"Scratching bouts (Nos.) In 30 min, 15-20 min","1 mg/kg PO, MEAN, N=6",22.33 Nos.
same,"Scratching bouts (Nos.) In 30 min, 20-25min","1 mg/kg PO, MEAN, N=6",19.17 Nos.
same,"Scratching bouts (Nos.) In 30 min, 25-30 min","1 mg/kg PO, MEAN, N=6",14.33 Nos.
same,Total Scratching bouts,"1 mg/kg PO, MEAN, N=6",83.83 (Nos.)/30 min
same,"Scratching bouts (Nos.) In 30 min, 0-5 min","1 mg/kg PO, individual animals",0 Nos. (2×) and 2 Nos. and 3 Nos. and 6 Nos. and 1 Nos.
same,"Scratching bouts (Nos.) In 30 min, 5-10 min","1 mg/kg PO, individual animals",1 Nos. and 7 Nos. and 18 Nos. and 36 Nos. and 0 Nos. (2×)
same,"Scratching bouts (Nos.) In 30 min, 10-15 min","1 mg/kg PO, individual animals",0 Nos. and 15 Nos. and 26 Nos. and 8 Nos. and 21 Nos. and 24 Nos.
same,"Scratching bouts (Nos.) In 30 min, 15-20 min","1 mg/kg PO, individual animals",30 Nos. and 24 Nos. and 14 Nos. and 7 Nos. and 44 Nos. and 15 Nos.
same,"Scratching bouts (Nos.) In 30 min, 20-25min","1 mg/kg PO, individual animals",48 Nos. and 38 Nos. and 7 Nos. and 10 Nos. and 12 Nos. and 0 Nos.
same,"Scratching bouts (Nos.) In 30 min, 25-30 min","1 mg/kg PO, individual animals",0 Nos. and 9 Nos. and 17 Nos. and 4 Nos. and 30 Nos. and 26 Nos.
same,Total Scratching bouts,"1 mg/kg PO, individual animals",79 (Nos.)/30 min and 95 (Nos.)/30 min and 85 (Nos.)/30 min and 65 (Nos.)/30 min and 113 (Nos.)/30 min and 66 (Nos.)/30 min
same,"Scratching bouts (Nos.) In 30 min, 0-5 min","3 mg/kg PO, MEAN, N=6",1.50 Nos.
same,"Scratching bouts (Nos.) In 30 min, 5-10 min","3 mg/kg PO, MEAN, N=6",7.50 Nos.
same,"Scratching bouts (Nos.) In 30 min, 10-15 min","3 mg/kg PO, MEAN, N=6",16.33 Nos.
same,"Scratching bouts (Nos.) In 30 min, 15-20 min","3 mg/kg PO, MEAN, N=6",17.17 Nos.
same,"Scratching bouts (Nos.) In 30 min, 20-25min","3 mg/kg PO, MEAN, N=6",13.33 Nos.
same,"Scratching bouts (Nos.) In 30 min, 25-30 min","3 mg/kg PO, MEAN, N=6",11.33 Nos.
same,Total Scratching bouts,"3 mg/kg PO, MEAN, N=6",67.17 (Nos.)/30 min
same,"Scratching bouts (Nos.) In 30 min, 0-5 min","3 mg/kg PO, individual animals",3 Nos. and 0 Nos. (4×) and 6 Nos.
same,"Scratching bouts (Nos.) In 30 min, 5-10 min","3 mg/kg PO, individual animals",0 Nos. (3×) and 31 Nos. and 12 Nos. and 2 Nos.
same,"Scratching bouts (Nos.) In 30 min, 10-15 min","3 mg/kg PO, individual animals",20 Nos. and 22 Nos. and 17 Nos. and 9 Nos. and 14 Nos. and 16 Nos.
same,"Scratching bouts (Nos.) In 30 min, 15-20 min","3 mg/kg PO, individual animals",18 Nos. and 5 Nos. and 35 Nos. and 26 Nos. and 19 Nos. and 0 Nos.
same,"Scratching bouts (Nos.) In 30 min, 20-25min","3 mg/kg PO, individual animals",2 Nos. and 32 Nos. and 22 Nos. and 6 Nos. and 10 Nos. and 8 Nos.
same,"Scratching bouts (Nos.) In 30 min, 25-30 min","3 mg/kg PO, individual animals",8 Nos. (2×) and 19 Nos. and 11 Nos. and 20 Nos. and 2 Nos.
same,Total Scratching bouts,"3 mg/kg PO, individual animals",51 (Nos.)/30 min and 78 (Nos.)/30 min and 119 (Nos.)/30 min and 64 (Nos.)/30 min and 63 (Nos.)/30 min and 28 (Nos.)/30 min
same,"Scratching bouts (Nos.) In 30 min, 0-5 min","10 mg/kg PO, MEAN, N=6",0.50 Nos.
same,"Scratching bouts (Nos.) In 30 min, 5-10 min","10 mg/kg PO, MEAN, N=6",6.17 Nos.
same,"Scratching bouts (Nos.) In 30 min, 10-15 min","10 mg/kg PO, MEAN, N=6",15.17 Nos.
same,"Scratching bouts (Nos.) In 30 min, 15-20 min","10 mg/kg PO, MEAN, N=6",12.50 Nos.
same,"Scratching bouts (Nos.) In 30 min, 20-25min","10 mg/kg PO, MEAN, N=6",13.67 Nos.
same,"Scratching bouts (Nos.) In 30 min, 25-30 min","10 mg/kg PO, MEAN, N=6",15.17 Nos.
same,Total Scratching bouts,"10 mg/kg PO, MEAN, N=6",63.17 (Nos.)/30 min
same,"Scratching bouts (Nos.) In 30 min, 0-5 min",[2],0 Nos. (4×) and 1 Nos. and 2 Nos.
same,"Scratching bouts (Nos.) In 30 min, 5-10 min",[2],7 Nos. (2×) and 0 Nos. (2×) and 22 Nos. and 1 Nos.
same,"Scratching bouts (Nos.) In 30 min, 10-15 min",[2],41 Nos. and 11 Nos. and 7 Nos. and 19 Nos. and 0 Nos. and 13 Nos.
same,"Scratching bouts (Nos.) In 30 min, 15-20 min",[2],9 Nos. and 0 Nos. (2×) and 22 Nos. and 25 Nos. and 19 Nos.
same,"Scratching bouts (Nos.) In 30 min, 20-25min",[2],0 Nos. (2×) and 10 Nos. and 20 Nos. and 19 Nos. and 33 Nos.
same,"Scratching bouts (Nos.) In 30 min, 25-30 min",[2],23 Nos. and 37 Nos. and 24 Nos. and 0 Nos. (2×) and 7 Nos.
same,Total Scratching bouts,[2],80 (Nos.)/30 min and 65 (Nos.)/30 min and 73 (Nos.)/30 min and 85 (Nos.)/30 min and 61 (Nos.)/30 min and 15 (Nos.)/30 min
same,"Scratching bouts (Nos.) In 30 min, 0-5 min","30 mg/kg PO, MEAN, N=6",5.17 Nos.
same,"Scratching bouts (Nos.) In 30 min, 5-10 min","30 mg/kg PO, MEAN, N=6",11.67 Nos.
same,"Scratching bouts (Nos.) In 30 min, 10-15 min","30 mg/kg PO, MEAN, N=6",7.17 Nos.
same,"Scratching bouts (Nos.) In 30 min, 15-20 min","30 mg/kg PO, MEAN, N=6",18.33 Nos.
same,"Scratching bouts (Nos.) In 30 min, 20-25min","30 mg/kg PO, MEAN, N=6",6.17 Nos.
same,"Scratching bouts (Nos.) In 30 min, 25-30 min","30 mg/kg PO, MEAN, N=6",2.83 Nos.
same,Total Scratching bouts,"30 mg/kg PO, MEAN, N=6",51.33 (Nos.)/30 min
same,"Scratching bouts (Nos.) In 30 min, 0-5 min",[3],0 Nos. (3×) and 1 Nos. and 20 Nos. and 10 Nos.
same,"Scratching bouts (Nos.) In 30 min, 5-10 min",[3],9 Nos. and 15 Nos. and 0 Nos. (2×) and 1 Nos. and 45 Nos.
same,"Scratching bouts (Nos.) In 30 min, 10-15 min",[3],8 Nos. and 1 Nos. and 22 Nos. and 3 Nos. and 9 Nos. and 0 Nos.
same,"Scratching bouts (Nos.) In 30 min, 15-20 min",[3],29 Nos. and 0 Nos. and 11 Nos. and 10 Nos. and 47 Nos. and 13 Nos.
same,"Scratching bouts (Nos.) In 30 min, 20-25min",[3],5 Nos. and 0 Nos. (3×) and 16 Nos. (2×)
same,"Scratching bouts (Nos.) In 30 min, 25-30 min",[3],0 Nos. (4×) and 12 Nos. and 5 Nos.
same,Total Scratching bouts,[3],51 (Nos.)/30 min and 29 (Nos.)/30 min and 69 (Nos.)/30 min and 18 (Nos.)/30 min and 57 (Nos.)/30 min and 84 (Nos.)/30 min
same,"scratching bouts compared to vehicle treatment, significance","at 1, 3, 10 and 30 mg/kg doses",Statistically significant decrease
same,"total number of scratching bouts, dose response","quantified for 30 minutes post CQ injection, 0.3-30 mg/kg PO",dose dependent decrease
